According to patent US20190282673A1, “STAPHTAME ACTIVITY ON BIOFILMS” (priority 2016, published 2019):
Where “and” joins values, the source holds several entries; their conditions need not be identical. Equal values may be shown once. Read-outs that look alike come from different tables or passages of the source.

Experiments:
[1] = test system: S. lugdunensis B9510 biofilms; assay: MBIC and checkerboard synergy on preformed biofilm (MTT assay); format: cell-based; settings: S. lugdunensis B9510 72 h preformed biofilm, 6 hr treatment
Experimental: (§1) […] LB supplemented with 50 μg/mL Ca^++ was used for daptomycin treatment wells. The contents of the well was aspirated out and discarded. The biofilm adhered to the wells was quantified by MTT assay as described above. In each experiment, in addition to the combination MBIC, the MBIC of each drug was also determined individually. The fractional MBIC concentrations were determined by MTT dye method as described above. The FICI and synergy was calculated.

[2] = test system: S. haemolyticus B9511 biofilms; assay: as above; format: cell-based; settings: S. haemolyticus B9511 72 h preformed biofilm, 6 hr treatment
Experimental: as §1

S. aureus MW2 biofilms = assay: Biofilm eradication/biomass removal, crystal violet staining; format: cell-based, Staphylococcus aureus; settings: for Activity on preformed biofilm, crystal violet: 500 μg/mL for 24 h, MSSA and MRSA strains
Experimental: Dis. 209:1469-78 was followed. Briefly, S. aureus MW2 strain grown on blood agar plates was inoculated into TSB with 2% glucose and the culture was grown overnight. The culture was diluted 1:50 in TSB to achieve an […] of the diluted culture was added to 1.8 mL of TSB media aliquoted into each well of a 24 well plate (˜5×10^5 CFU). The plates were kept at 37° C. under static conditions for 18 h, the contents were aspirated, the wells were washed twice with 2.0 mLmL of 1×PBS, and 1 mLmL of media+1 mLmL of the drug was added to each well and incubated at 37° C. for 0, 2, 4 and 24 h. The contents were aspirated out at the stipulated time points and the wells were washed with 2 mL of 1×PBS. The wells were allowed to dry at 37° C. for 15 min and stained with 1 mLmL of 1% CV for 5 min. The wells were washed with 1 mLmL of 1×PBS, air dried and observed for intensity of blue color.
0.1% CV was used for staining biofilms. Post staining and washing steps, 1 mL 30% acetic acid is added to each well, incubated in RT for 5-10 min, contents in the well are mixed thoroughly and OD was read at 570 nm.

S. aureus COL = format: in vivo, BALB/c mice; settings: P128 0.2 mg/kg ip single dose, or both
Experimental: A standard mouse model of S. aureus bacteremia was used. Zuluaga, et al. (2006) “Neutropenia induced in out bred mice by a simplified low-dose cyclophosphamide regimen: Characterization and applicability to diverse experimental models of infectious diseases” BMC Infect. Dis. 6:55-64. Female BALB/c mice of 8-9 weeks age were challenged by intraperitoneal route with S. aureus COL at 10^9 CFU per animal. After the bacterial challenge, animals were treated through parenteral routes with P128 alone or P128 in combination with standard of care antibiotics (e.g., vancomycin, daptomycin, linezolid, oxacillin, etc.). Animals were monitored for survival for a period of 72 hours. In this model of infection, normal as well as immunocompromised (neutropenia induced by cyclophosphamide) mice were used to evaluate P128 and antibiotic-P128 combinations.
Eight to nine weeks old female BALB/c mice were challenged intraperitoneally with 10^9 CFU of S. aureus COL. At 2 hours post-infection, animals were treated with either P128 at 0.2 mg/kg via intraperitoneal route, or vancomycin at 55 mg/kg by subcutaneous route, or a combination of both by respective routes. Groups treated with only vancomycin or combination of P128 and vancomycin were administered a second dose of vancomycin 12 hours after the first dose.
In the same model, efficacy of daptomycin in combination with P128 was evaluated. At 2 hours post-infection, animals were treated with either P128 at 0.2 mg/kg administered by intraperitoneal route, or daptomycin at 12.5 mg/kg administered by subcutaneous route; or a combination of both administered by respective routes. Groups treated with only daptomycin or combination of P128 and daptomycin were administered a second dose of daptomycin 12 hours after the first daptomycin dose.

[3] = test system: S. aureus MW2 biofilms on catheters; assay: Preformed biofilms on catheters, safranin staining and SEM; format: cell-based, Staphylococcus aureus; settings: 18 hrs; P128 8 μg/mL (1×MIC); vancomycin 90 μg/mL (90×MIC); daptomycin 10 μg/mL (10×MIC)
Experimental: To study the efficacy of P128 on biofilms on catheters, an overnight-grown culture of S. aureus MW2 was diluted 1:40 in TSB containing 5% rabbit plasma. Catheter (JMS Infusion set) pieces of 1-2 cm size were cut, slit into two halves and added to the culture. The cultures with catheter pieces were incubated at 37° C. with shaking at 100 rpm for 24 h. Post incubation, the catheters were removed and rinsed twice in PBS to remove the adhering planktonic cells. The biofilms on catheters were challenged with 8, 4, 2 and 1 μg/mL of P128 or 15, 30 and 90 μg/mL of vancomycin or 10 μg/mL of daptomycin (with 50 μg/mL CaCl2) by transferring the catheter pieces into tubes containing the drugs. The tubes were incubated at 37° C. under static conditions for 18 hrs. The catheters were then removed from the tubes, rinsed once in PBS, and immersed in 0.1% safranin for 5 min. The stained catheters were washed once in PBS and allowed to dry. After drying, samples were fixed on aluminum stubs with double sided carbon adhesive tape, coated with 5-7 nm thickness gold using a sputter-coating system (Quorum Technologies; Q150T) and examined by SEM (Carl Zeiss; Neon 40) for the presence of biofilm structures.

[4] = test system: S. epidermidis B9470 persisters; assay: P128 and antibiotic activity on persisters (CFU); format: cell-based, Staphylococcus epidermidis; settings: 1×MIC, P128 1 h, antibiotics 6 h
Experimental: Persisters were generated as above were treated with P128 and antibiotics (Ref: Gutiérrez, et al. (2014) Effective Removal of Staphylococcal Biofilms by the Endolysin LysH5 PLoS One 9(9): e107307).
To 450 μL aliquots, P128. Daptomycin and Vancomycin (in saline) were added (individually) each at 1×MIC Conc., and another 450 μL aliquot was taken as control. The persister samples treated with P128 were incubated for 1 h, 37° C., and 200 rpm and those treated with antibiotics were incubated for 6 h, 37° C., and 200 rpm. After incubation samples were serially log diluted and plated.

[5] = S. aureus COL, Daptomycin 12.5 mg/kg sc 2 doses, 24 mice per group
[6] = S. aureus COL 10^9 CFU ip, Vancomycin 55 mg/kg sc 2 doses, 26 mice per group

With `CCCCCCCCCC(=O)N[C@@H](Cc1c[nH]c2ccccc12)C(=O)N[C@H](CC(N)=O)C(=O)N[C@@H](CC(=O)O)C(=O)N[C@@H]1C(=O)NCC(=O)N[C@@H](CCCN)C(=O)N[C@@H](CC(=O)O)C(=O)N[C@H](C)C(=O)N[C@@H](CC(=O)O)C(=O)NCC(=O)N[C@H](CO)C(=O)N[C@@H]([C@H](C)CC(=O)O)C(=O)N[C@@H](CC(=O)c2ccccc2N)C(=O)O[C@@H]1C` [Daptomycin, daptomycin] the “MBIC (drug alone)” value [1] was 15.6 µg/mL, the “MBIC (drug alone)” value [2] was over 250 µg/mL and the “Activity on preformed biofilm, crystal violet” value (“Activity on preformed biofilm” below) (S. aureus MW2 biofilms) was “insignificant activity”. The “Survival at 72 h post infection” value (S. aureus COL; [5]) was 45%, the “Effect on catheter biofilm (safranin/SEM)” value (“Effect … (safranin/SEM)” for short) [3] was “significant reduction in biofilm mass” and the “CFU/mL after treatment of persisters” value ([4]; B9470 Daptomycin persisters) was 1.3 × 10^6 CFU/mL. The “CFU/mL after treatment of persisters” value ([4]; B9470 Vancomycin persisters) was 2.1 × 10^2 CFU/mL.

With `CC(=O)NC[C@H]1CN(c2ccc(N3CCOCC3)c(F)c2)C(=O)O1` [Linezolid, linezolid] the “MBIC (drug alone)” value [1] was 125 µg/mL, the “MBIC (drug alone)” value [2] was over 250 µg/mL and the “Activity on preformed biofilm” value (S. aureus MW2 biofilms) was “insignificant activity”.

For `CN[C@H](CC(C)C)C(=O)N[C@H]1C(=O)N[C@@H](CC(N)=O)C(=O)N[C@H]2C(=O)N[C@H]3C(=O)N[C@H](C(=O)N[C@H](C(=O)O)c4cc(O)cc(O)c4-c4cc3ccc4O)[C@H](O)c3ccc(c(Cl)c3)Oc3cc2cc(c3O[C@@H]2O[C@H](CO)[C@@H](O)[C@H](O)[C@H]2O[C@H]2C[C@](C)(N)[C@H](O)[C@H](C)O2)Oc2ccc(cc2Cl)[C@H]1O` [Vancomycin, vancomycin], the “MBIC (drug alone)” value [1] was 250 µg/mL, the “MBIC (drug alone)” value [2] was over 250 µg/mL and the “Activity on preformed biofilm” value (S. aureus MW2 biofilms) was “insignificant activity”. The “Survival at 72 h post infection” value (S. aureus COL; [6]) was 46%, the “Effect … (safranin/SEM)” value [3] was “minimal effect” and the “CFU/mL after treatment of persisters” value ([4]; B9470 Daptomycin persisters) was 5 × 10^5 CFU/mL. The “CFU/mL after treatment of persisters” value ([4]; B9470 Vancomycin persisters) was 1.5 × 10^3 CFU/mL.

B1: P128: anti-staphylococcal chimeric protein: phage tail associated muralytic enzyme (TAME) cell wall-degrading region plus staphylococcus-specific binding region; SEQ ID NO: 1 (protein)
chain: MSLDSLKKYNGKLPKHDPSFVQPGNRHYKYQCTWYAYNRRGQLGIPVPLWGDAADWIGGAKGAGYGVGRTPKQGACVIWQRGVQGGSPQYGHVAFVEKVLDGGKKIFISEHNYATPNGYGTRTIDMSSAIGKNAQFIYDKKLETPNTGWKTNKYGTLYKSESASFTPNTDIITRTTGPFRSMPQSGVLKAGQTIHYDEVMKQDGHVWVGYTGNSGQRIYLPVRTWNKSTNTLGVLWGTIK
modifications: P128 chimera
For B1, the “MBIC (drug alone)” value [1] was 32 µg/mL and 16 µg/mL, the “MBIC (drug alone)” value [2] was 6.25 µg/mL and 12.5 µg/mL and the “Time of treatment to eliminate the biofilms” value (S. aureus MW2 biofilms; P128 at 1×MIC (8 μg/mL)) was at most 2 h. For the same molecule, the “OD570 of crystal violet vs cell control” value (S. aureus MW2 biofilms; even after 24 h) was “significant drop in OD”, the “Survival at 72 h post infection” value (S. aureus COL; [6]) was 30% and the “Survival at 72 h post infection” value (S. aureus COL; [5]) was 45%. For the same molecule, the “Effect … (safranin/SEM)” value [3] was “eradication of the biofilm”, the “CFU/mL after treatment of persisters” value ([4]; B9470 Daptomycin persisters) was 2.5 × 10^2 CFU/mL and the “CFU/mL after treatment of persisters” value ([4]; B9470 Vancomycin persisters) was 7 × 10^1 CFU/mL.
